According to PMC4971421, “Redox-Dependent Modulation of T-Type Ca^2+ Channels in Sensory Neurons Contributes to Acute Anti-Nociceptive Effect of Substance P” (Antioxidants & Redox Signaling, 2016):

Tests used:
[1] = system: high-voltage-activated (HVA) Ca^2+ currents in DRG neurons; assay: HVA Ca2+ current, whole-cell patch clamp, DRG neurons; type: cell-based, rat; conditions: 1 μM
Procedure: DRG neurons from adult male Sprague–Dawley rats (170–180 g) were dissociated as previously described ([13], [29]) and cultured in DMEM supplemented with GlutaMax I, 10% fetal calf serum, penicillin (50 U/ml), and streptomycin (50 μg/ml) on glass coverslips that were coated with poly-D-lysine for 2–5 days in a humidified incubator (37°C, 5% CO2). No growth factors were added to the culture media. HEK 293 cells were cultured in the same DMEM media; cells were passaged every 2 days. Human NK1 receptor (GenBank accession No. AY462098) complementary DNA (cDNA) was from the Missouri Science and Technology cDNA Resource Center. WtCaV3.1 (GenBank accession No. AF027984), wtCaV3.2 (GenBank accession No. AF051946), CaV3.1Q172H, and CaV3.2H191Q were kindly provided by Dr E. Perez-Reyes (University of Virginia). HEK293 cells were transfected using Lipofectamine 2000 (Invitrogen) according to the manufacturer's instructions. […]
All recordings were made using Multiclamp 700B amplifier in combination with pCLAMP 10.4 software (Molecular Devices). […] T-type calcium currents (LVA) were measured by 50 ms square voltage pulses to −40 mV from a holding potential of −90 mV. HVA currents were measured by 200 ms square voltage pulses to 0 mV from a holding potential of −90 mV.

[2] = system: rat hind paw; assay: BK-induced nocifensive behavior, pre-injection protocol; type: in vivo; conditions: for BK-induced nociception: 5 min before BK 10 nmol/site
Procedure: Sprague–Dawley rats (body weight, 170–180 g) were grouped randomly and allowed to acclimate for at least 30 min in a transparent observation chamber before the experiment. Animals received a 50-μl intraplantar injection of ST101 (0.001–10 nmol/site), BK (10 nmol/site), RTG (1–10 nmol/site), Z944 (0.05–5 nmol/site), SP (0.5–5 nmol/site), or saline, respectively, into the right hind paw. For evaluation of the acute “spontaneous” pain, animals were video-recorded for 30 min after the injection and protective (“nocifensive”) behavior was analyzed as time spent licking, biting, lifting, and flinching the injected paw. The analyses were performed by an observer who was unaware of treatment allocations. In the pre-injection experiments, the right hind paw of the animal received a pre-injection of 50 μl Z944 (0.05–0.5 nmol/site), RTG (1–10 nmol/site), SP (0.5 nmol/site), Z944 (0.05–0.5 nmol/site)+RTG (1 nmol/site), or saline; 5 min later, on the same paw, the animal received a further 50-μl injection of BK (10 nmol/site) together with the pre-injection drug mix. Nocifensive behavior was analyzed as described earlier.
The in vivo CaV3.2 knock-down was performed as described earlier ([3]) by using the same ODN sequences that were synthesized by SBS Genetech. AS ODNs had the following sequence: […]. The mismatch ODNs of the following sequence were used as a negative control: […]. The mismatch ODN was not complementary to any known nucleotide sequence. ODNs were reconstituted in saline before injection. ODNs (12.5 μg/rat in 10 μl of saline) or saline were injected intrathecally (i.t.) between the L5 and L6 dorsal spinous processes as described earlier ([3], [42]) under isoflurane anesthesia. The treatment was repeated twice daily for 4 days. The pain tests were performed on the next day after the last injection. After behavioral testing, animals were humanly sacrificed; lumbar DRGs were extracted and analyzed for the knock-down efficiency by comparing the Cacna1h mRNA levels in lumbar (L4 to L6) DRGs of the saline-injected, mismatch ODN-injected, and AS ODN-injected animals using RT-PCR. The same Cacna1h and Gapdh primers as in siRNA experiments were used for RT-PCR.

[3] = system: rat hind paw; assay: Hargreaves test, paw withdrawal latency to noxious heat; type: in vivo; conditions: hind-paw injection 50 μl; 0.005–0.5 nmol/site; 8 min after injection
Procedure: For measurement of thermal hyperalgesia, the change in the latency of hind-paw withdrawal in response to noxious heat was recorded using the Hargreaves’ plantar method (Ugo Basile) at 8 min after the hind-paw injection of drugs; the heat source was set to 25% of the maximal intensity.

[4] = system: rat hind paw; assay: Cotton swab test (gentle touch); type: in vivo; conditions: 50 μl; 0.5 nmol/site; 8 min after injection
Procedure: For measurement of sensitivity to gentle touch and mechanical hyperalgesia, two methods were used. (i) Cotton swab test was performed as previously described ([53]). Briefly, rats were allowed to acclimate in a cage with a wire mesh bottom for at least 30 min and then were manually probed with a “cotton swab” pulled from a Q-tip (to approximately three times the original size). A swab was applied in a sweeping motion underneath the rats’ paws, and the withdrawal responses were recorded. Five sweeps were applied in each test, with at least 10 s between each sweep; withdrawal score was calculated as a percentage of positive responses. (ii) The von Frey test was performed using a calibrated range of filaments with different bending forces (2, 4, 6, 8, 10, and 15 g; Stoelting Co.). A single filament was applied perpendicularly to the plantar surface of the hind paw for five times, with an interval of 5 s, and it was scored for withdrawal responses. Each force was probed five times, the number of withdrawals out of five trials was counted, and the percentage of withdrawal responses was calculated. Both types of assays were performed 8 min after the hind-paw drug injection.

[5] = system: N-type VGCCs; conditions: 1 μM; cited from earlier work
[6] = system: Nav1.5; conditions: 1 μM; cited from earlier work
[7] = system: L-type VGCCs; conditions: 1 μM; cited from earlier work
Procedure: (§1) The T-type Ca^2+ current is an important regulator of sensory neuron excitability ([10], [17], [18], [20], [23], [24], [51], [71], [75]). […] Z944 (1 μM) inhibited LVA curren ...

[8] = system: CaV3; conditions: read-out: IC50, CaV3 inhibition; cited from earlier work
Procedure: as §1

[9] = system: hERG channels; conditions: 1 μM; cited from earlier work

SMILES: CC(C)(C)NC(=O)CN1CCC(CNC(=O)c2cc(F)cc(Cl)c2)CC1 [Z944, N-[[1-[2-(tert-butylamino)-2-oxoethyl]piperidin-4-yl]methyl]-3-chloro-5-fluorobenzamide]
- effect on HVA current [1]: without a noticeable effect
- nocifensive behavior produced by hind-paw BK injection in saline- and mismatch ODN-injected animals ([2]; 0.5 nmol/site, BK 10 nmol/site): still significantly attenuated
- BK-induced nociception ([2]; pre-injection 0.05 nmol/site): not at 0.05 nmol/site
- BK-induced nociception ([2]; pre-injection 0.5 nmol/site): significantly attenuated
- paw withdrawal latency on radiant heat exposure [3]: significantly increased
- sensitivity to light touch, cotton swab assay [4]: produced a similar effect
- effect on N-type VGCCs [5]: no significant effect
- effect on Nav1.5 [6]: no significant effect
- effect on L-type VGCCs [7]: no significant effect
- IC50 [8]: ~50 nM
- effect on hERG channels [9]: no significant effect
